What is called IC50 is the concentration that inhibits the measured activity by half.

The target in this assay is hGYS1 enzyme (recombinant hGYS1/GN1 protein) (Homo sapiens (Human), UniProt P13807). Put plainly: GYS1 coupled enzyme assay (PK/LDH). Conditions: hGYS1/GN1 50 nM, UDP-Glucose 0.8 mM, G6P 1 mM; geometric mean of at least 2 runs. It is filed as biochemical. An excerpt: The GYS1 coupled enzyme assay is a kinetic biochemical assay that indirectly quantifies the rate of glycogen synthesis by coupling the conversion of GYS1 substrate UDP-glucose into UDP with downstream enzymatic reactions. UDP is released from UDP-glucose as glucose monomers are linked into the growing glycogen strand by GYS1. The coupled assay then proceeds with pyruvate kinase utilizing UDP and phospho(enol)pyruvate (PEP) to form pyruvate. Lactate dehydrogenase then converts pyruvate and NADH into lactate and NAD+. Oxidation of NADH to NAD+ can be measured continuously with a plate reader by quantifying the decrease in NADH absorbance at 340 nm over time.
hGYS1 enzyme (recombinant hGYS1/GN1 protein), sequence (P13807 whole entry): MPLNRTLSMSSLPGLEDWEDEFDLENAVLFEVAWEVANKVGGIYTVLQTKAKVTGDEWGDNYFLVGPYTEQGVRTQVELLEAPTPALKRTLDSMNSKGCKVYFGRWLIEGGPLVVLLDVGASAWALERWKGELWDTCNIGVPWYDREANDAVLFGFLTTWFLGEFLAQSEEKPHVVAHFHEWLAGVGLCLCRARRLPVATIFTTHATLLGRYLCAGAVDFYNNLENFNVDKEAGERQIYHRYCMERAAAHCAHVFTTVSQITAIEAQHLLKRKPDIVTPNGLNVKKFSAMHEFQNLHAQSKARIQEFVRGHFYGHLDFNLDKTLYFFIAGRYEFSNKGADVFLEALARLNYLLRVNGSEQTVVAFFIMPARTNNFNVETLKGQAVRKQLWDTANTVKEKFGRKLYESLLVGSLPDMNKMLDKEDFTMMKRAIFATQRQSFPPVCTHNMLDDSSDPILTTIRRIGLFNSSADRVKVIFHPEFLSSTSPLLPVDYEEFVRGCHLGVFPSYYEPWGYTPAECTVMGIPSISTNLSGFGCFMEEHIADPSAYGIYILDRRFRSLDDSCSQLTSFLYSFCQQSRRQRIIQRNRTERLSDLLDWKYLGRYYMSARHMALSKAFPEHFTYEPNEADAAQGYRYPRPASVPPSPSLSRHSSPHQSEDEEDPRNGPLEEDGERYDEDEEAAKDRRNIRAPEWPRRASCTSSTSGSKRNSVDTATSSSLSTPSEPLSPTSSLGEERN
hGYS1 enzyme (recombinant hGYS1/GN1 protein), sequence (P46976 whole entry partner): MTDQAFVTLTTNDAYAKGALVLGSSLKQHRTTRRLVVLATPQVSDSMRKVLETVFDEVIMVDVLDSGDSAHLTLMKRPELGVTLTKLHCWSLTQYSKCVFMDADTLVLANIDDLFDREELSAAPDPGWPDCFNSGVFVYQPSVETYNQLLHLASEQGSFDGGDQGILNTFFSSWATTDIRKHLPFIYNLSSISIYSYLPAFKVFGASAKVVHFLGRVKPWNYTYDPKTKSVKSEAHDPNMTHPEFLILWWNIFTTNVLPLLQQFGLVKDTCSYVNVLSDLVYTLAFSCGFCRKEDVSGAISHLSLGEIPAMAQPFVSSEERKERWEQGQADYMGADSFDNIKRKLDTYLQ
Compounds that inhibit the hGYS1 enzyme and, subsequently, the downstream conversion of NADH to NAD+, were tested using assay ready plates (black, clear bottom 384 well plates) in a final DMSO reaction volume of 2.5% DMSO. The Assay Buffer contained 50 mM Tris pH 7.5, 2 mM MgCl2, and 100 mM KCl. Fresh stocks of BSA at a final concentration of 0.02% and TCEP at 1 mM were added before splitting buffer into hGYS1 buffer and substrate buffer. To the hGYS1 buffer, rabbit liver glycogen was added at a final concentration of 0.2% glycogen. Glucose-6-Phosphate was added at 1 mM, recombinant hGYS1/GN1 protein was added at 50 nM to the substrate buffer, phosphoenolpyruvate (PEP) was added at 2 mM, UDP-Glucose was added at 0.8 mM, NADH) was added at 0.6 mM, and Pyruvate Kinase/Lactate Dehydrogenase was added at 20 units/mL. The reaction was initiated by mixing hGYS1 buffer and substrate buffer at a 1:1 ratio. Both buffers were plated using a liquid dispensing device with hGYS1 buffer plated first followed by the substrate buffer. Plates were spun briefly to eliminate air bubbles and are immediately read in continuous mode at an absorbance of 340 nm, for 10 time points in one-minute increments, for a total of 10 minutes. The slope from these 10 time points was normalized to the positive and negative control wells. The duplicate % inhibition values are then averaged and fit to a Hill equation for dose response according to the Levenberg-Marquardt algorithm with the Hill equation maximum set to 100 and the minimum set to 0.
Unless otherwise specified, IC50 values are reported as the geometric mean of at least 2 assay runs on separate days. Each run represents the average of a technical replicate, where each compound was assayed twice in the same plate. […] A superscript “#” symbol in Table 2 indicates results from a single assay run.
For the compound `Cc1cn(CC(=O)N2C[C@H](F)C[C@H]2C(=O)N[C@@H](c2ccccc2)c2ccc(C(C)C)c(F)n2)c(=O)[nH]c1=O` (relative stereo) [Compound 778, (2S,4R)-4-fluoro-N-[(R*)-[6-fluoro-5-(propan-2-yl)pyridin-2-yl](phenyl)methyl]-1-[2-(5-methyl-2,4-dioxo-1,2,3,4-tetrahydropyrimidin-1-yl)acetyl]pyrrolidine-2-carboxamide], the IC50 amounted to 0.381 µM.
As for `CC(C)c1cnc(C(NC(=O)[C@@H]2C[C@@H](F)CN2C(=O)Cc2cnn[nH]2)c2ccccc2)cc1C(F)F` (single isomer, unassigned) [Compound 606, (2S,4R)-N-[(S) or (R)-[4-(difluoromethyl)-5-(propan-2-yl)pyridin-2-yl](phenyl)methyl]-4-fluoro-1-[2-(1H-1,2,3-triazol-5-yl)acetyl]pyrrolidine-2-carboxamide], the figure is 1.13 µM; as for `CC(=O)NCC(=O)N1CCC[C@H]1C(=O)NC(c1ccc(C2CC2)c(F)c1)c1ccn[nH]1` (single isomer, unassigned) [Compound 615, (2S)-N-[(R) or (S)-(4-cyclopropyl-3-fluorophenyl)(1H-pyrazol-5-yl)methyl]-1-(2-acetamidoacetyl) pyrrolidine-2-carboxamide], 1.58 µM.
In the case of `CC(C)c1ccc(C(NC(=O)[C@@H]2C[C@@H](F)CN2C(=O)Cc2cnn[nH]2)c2ccc(F)cn2)cc1F` (single isomer, unassigned) [Compound 616, (2S,4R)-4-fluoro-N-[(R) or (S)-[3-fluoro-4-(propan-2-yl)phenyl](5-fluoropyridin-2-yl)methyl]-1-[2-(1H-1,2,3-triazol-5-yl)acetyl]pyrrolidine-2-carboxamide], the IC50 was 1.32 µM.
As for `CC(C)c1ccc(C(NC(=O)[C@@H]2C[C@@H](F)CN2C(=O)Cc2cnn[nH]2)c2cncc(F)c2)cc1F` (single isomer, unassigned) [Compound 617, (2S,4R)-4-fluoro-N-[(R) or (S)-[3-fluoro-4-(propan-2-yl)phenyl](5-fluoropyridin-3-yl)methyl]-1-[2-(1H-1,2,3-triazol-5-yl)acetyl]pyrrolidine-2-carboxamide], the figure is 1.64 µM.
On to `CC(C)c1ccc(C(NC(=O)[C@@H]2C[C@@H](F)CN2C(=O)Cc2cnn[nH]2)c2ccnc(N)c2)cc1F` (single isomer, unassigned) [Compound 618, (2S,4R)-N-[(S) or (R)-(2-aminopyridin-4-yl)[3-fluoro-4-(propan-2-yl)phenyl]methyl]-4-fluoro-1-[2-(1H-1,2,3-triazol-5-yl)acetyl]pyrrolidine-2-carboxamide], for which the IC50 came to 1.52 µM.
Take `CC(C)c1ccc(C(NC(=O)[C@@H]2C[C@@H](F)CN2C(=O)Cc2cnn[nH]2)c2ccncc2F)cc1F` (single isomer, unassigned) [Compound 619, (2S,4R)-4-fluoro-N-[(R) or (S)-[3-fluoro-4-(propan-2-yl)phenyl](3-fluoropyridin-4-yl)methyl]-1-[2-(1H-1,2,3-triazol-5-yl)acetyl]pyrrolidine-2-carboxamide]: the IC50 was 1.16 µM.
The figure for `CC(C)c1ccc(C(NC(=O)[C@@H]2C[C@@H](F)CN2C(=O)Cc2cnn[nH]2)c2cccc(N)n2)cc1F` (single isomer, unassigned) [Compound 621, (2S,4R)-N-[(R) or (S)-(6-aminopyridin-2-yl)[3-fluoro-4-(propan-2-yl)phenyl]methyl]-4-fluoro-1-[2-(1H-1,2,3-triazol-5-yl)acetyl]pyrrolidine-2-carboxamide] is 0.555 µM; for `CC(=O)N1CCC[C@H]1C(=O)NC(c1ccc(C(C)C)cn1)c1ccccc1C` (single isomer, unassigned) [Compound 641, (2S)-1-acetyl-N-[(S) or (R)-(2-methylphenyl)[5-(propan-2-yl)pyridin-2-yl]methyl]pyrrolidine-2-carboxamide] it is 2.95 µM.
On to `CC(=O)NCC(=O)N1CCC[C@H]1C(=O)NC(c1ccc(C2CC2)c(F)c1)c1cccc2[nH]c(=O)oc12` (single isomer, unassigned) [Compound 643, (2S)-N-[(R) or (S)-(4-cyclopropyl-3-fluorophenyl)(2-oxo-2,3-dihydro-1,3-benzoxazol-7-yl)methyl]-1-(2-acetamidoacetyl) pyrrolidine-2-carboxamide], for which the IC50 worked out at 2.19 µM.
The figure for `O=C(NC(c1ccc(C2CC2)c(F)c1)c1cccc2[nH]c(=O)[nH]c12)[C@@H]1CCCN1C(=O)Cc1cnn[nH]1` (single isomer, unassigned) [Compound 648] is 0.616 µM; for `CC(C)c1c(F)cc(C(NC(=O)[C@@H]2C[C@@H](F)CN2C(=O)Cc2cnn[nH]2)c2ccccc2)cc1F` (single isomer, unassigned) [Compound 666, (2S,4R)-N-[(R) or (S)-[3,5-difluoro-4-(propan-2-yl)phenyl](phenyl)methyl]-4-fluoro-1-[2-(1H-1,2,3-triazol-5-yl)acetyl]pyrrolidine-2-carboxamide] it is 2.27 µM; for `O=C(NC(c1ccccc1)c1ccc(C2CCC2)c(F)c1)[C@@H]1C[C@@H](F)CN1C(=O)Cc1cnn[nH]1` (single isomer, unassigned) [Compound 673, (2S,4R)-N-[(R) or (S)-(4-cyclobutyl-3-fluorophenyl)(phenyl)methyl]-4-fluoro-1-[2-(1H-1,2,3-triazol-5-yl)acetyl]pyrrolidine-2-carboxamide] it is 1.74 µM.
As for `CC(=O)N1C[C@H](F)C[C@H]1C(=O)N[C@@H](c1cccc(-c2nnc[nH]2)c1)c1ccc(C(C)C)c(F)n1` (single isomer, unassigned) [Compound 688, (2S,4R)—N—((S) or (R)-(3-(4H-1,2,4-triazol-3-yl)phenyl)(6-fluoro-5-isopropylpyridin-2-yl)methyl)-1-acetyl-4-fluoropyrrolidine-2-carboxamide], the figure is 0.106 µM; as for `CC(=O)N1C[C@H](F)C[C@H]1C(=O)N[C@H](c1cccc(-c2nnc[nH]2)c1)c1ccc(C(C)C)c(F)n1` (single isomer, unassigned) [Compound 689, (2S,4R)—N—((R) or (S)-(3-(4H-1,2,4-triazol-3-yl)phenyl)(6-fluoro-5-isopropylpyridin-2-yl)methyl)-1-acetyl-4-fluoropyrrolidine-2-carboxamide], above 10 µM; as for `CC(=O)N1C[C@H](F)C[C@H]1C(=O)NC(c1cccc(-c2ccno2)c1)c1ccc(C(C)C)c(F)n1` (single isomer, unassigned) [Compound 698, (2S,4R)-1-acetyl-4-fluoro-N-[(S) or (R)-[6-fluoro-5-(propan-2-yl)pyridin-2-yl][3-(1,2-oxazol-5-yl)phenyl]methyl] pyrrolidine-2-carboxamide], 0.151 µM.
In the case of `CC(=O)N1C[C@H](F)C[C@H]1C(=O)NC(c1cccc(-n2cccn2)c1)c1ccc(C(C)C)c(F)n1` (single isomer, unassigned) [Compound 699, (2S,4R)-1-acetyl-4-fluoro-N-[(S) or (R)-[6-fluoro-5-(propan-2-yl)pyridin-2-yl][3-(1H-pyrazol-1-yl)phenyl]methyl] pyrrolidine-2-carboxamide], the IC50 was 0.051 µM.
The figure for `CC(=O)N1C[C@H](F)C[C@H]1C(=O)NC(c1cccc(-c2nnco2)c1)c1ccc(C(C)C)c(F)n1` (single isomer, unassigned) [Compound 700, (2S,4R)-1-acetyl-4-fluoro-N-[(S) or (R)-[6-fluoro-5-(propan-2-yl)pyridin-2-yl][3-(1,3,4-oxadiazol-2-yl)phenyl]methyl] pyrrolidine-2-carboxamide] is 0.321 µM.
The figure for `CC(C)c1ccc([C@@H](NC(=O)[C@@H]2C[C@@H](F)CN2C(=O)Cc2cc[nH]n2)c2ccccc2)cc1` (stereo in doubt) [Compound 225, (2RS,4R)-4-fluoro-N-[(S)-phenyl[4-(propan-2-yl)phenyl]methyl]-1-[2-(1H-pyrazol-3-yl)acetyl]pyrrolidine-2-carboxamide] is 0.044 µM; for `CC(=O)N1CCC2(CC(C(=O)N3C[C@H](F)C[C@H]3C(=O)N[C@@H](c3ccccc3)c3ccc(C(C)C)cc3)=NO2)C1` (stereo partly drawn) [Compound 4, (2S,4R)-{7-acetyl-1-oxa-2,7-diazaspiro[4.4]non-2-ene-3-carbonyl}-4-fluoro-N-[(S)-phenyl[4-(propan-2-yl)phenyl]methyl]pyrrolidine-2-carboxamide] it is 0.998 µM.

These data come from US11814367B2, “Inhibitors of glycogen synthase 1 (GYS1) and methods of use thereof” (Maze Therapeutics, Inc., priority 2021, dated 2023).
